From the Kinase Knowledgebase extract (Sharma et al. 2016)

What follows are molecules tested against ROCK2 (human) (UniProt O75116) (assay: Inhibition of ROCK2 Kinase Activity).
Chain of ROCK2 (human) (O75116 whole entry, looked up): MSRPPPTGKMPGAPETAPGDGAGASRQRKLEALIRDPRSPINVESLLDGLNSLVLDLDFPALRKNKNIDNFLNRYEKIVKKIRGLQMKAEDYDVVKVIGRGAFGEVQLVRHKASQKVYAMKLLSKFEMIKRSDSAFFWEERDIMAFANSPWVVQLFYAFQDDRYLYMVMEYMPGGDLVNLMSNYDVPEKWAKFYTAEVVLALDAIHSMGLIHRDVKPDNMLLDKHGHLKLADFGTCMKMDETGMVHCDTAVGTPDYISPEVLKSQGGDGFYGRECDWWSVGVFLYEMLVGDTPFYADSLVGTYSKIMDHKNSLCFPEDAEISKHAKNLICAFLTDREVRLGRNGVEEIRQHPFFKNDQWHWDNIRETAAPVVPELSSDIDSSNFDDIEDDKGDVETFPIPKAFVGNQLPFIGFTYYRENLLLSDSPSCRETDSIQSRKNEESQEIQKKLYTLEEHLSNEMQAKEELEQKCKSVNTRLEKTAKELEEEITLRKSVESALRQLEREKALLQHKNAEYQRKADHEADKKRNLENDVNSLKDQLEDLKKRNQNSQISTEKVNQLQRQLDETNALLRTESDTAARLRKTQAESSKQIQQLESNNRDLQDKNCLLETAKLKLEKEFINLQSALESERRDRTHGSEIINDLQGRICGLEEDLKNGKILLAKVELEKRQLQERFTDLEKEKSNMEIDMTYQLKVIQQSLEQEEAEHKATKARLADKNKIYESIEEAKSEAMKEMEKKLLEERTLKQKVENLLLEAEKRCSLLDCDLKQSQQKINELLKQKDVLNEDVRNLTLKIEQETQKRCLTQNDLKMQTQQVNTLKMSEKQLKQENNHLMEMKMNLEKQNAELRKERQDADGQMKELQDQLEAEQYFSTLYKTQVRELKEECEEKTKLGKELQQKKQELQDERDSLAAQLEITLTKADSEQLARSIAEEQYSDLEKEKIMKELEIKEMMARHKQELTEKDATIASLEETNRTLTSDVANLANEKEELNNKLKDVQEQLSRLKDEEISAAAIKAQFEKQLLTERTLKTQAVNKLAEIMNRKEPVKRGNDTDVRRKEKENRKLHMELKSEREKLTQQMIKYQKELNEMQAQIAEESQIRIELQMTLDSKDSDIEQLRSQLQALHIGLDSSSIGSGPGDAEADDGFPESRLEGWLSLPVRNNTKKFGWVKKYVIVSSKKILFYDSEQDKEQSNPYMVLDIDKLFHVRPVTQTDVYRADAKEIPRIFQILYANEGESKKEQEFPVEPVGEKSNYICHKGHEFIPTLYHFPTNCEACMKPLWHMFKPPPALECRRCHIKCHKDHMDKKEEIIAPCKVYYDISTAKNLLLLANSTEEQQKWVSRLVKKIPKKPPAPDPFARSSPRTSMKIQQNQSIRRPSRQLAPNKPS
`Cc1n[nH]cc1-c1ccc2nc(C3COc4ccc(F)cc4C3)oc2c1` (centres undefined) was tested, and the IC50 was 0.009 µM. `c1ccc(OCc2nc3ccc(-c4cn[nH]c4)cc3s2)cc1` was tested, and the IC50 was 0.044 µM. In the case of `c1ccc(CCc2nc3ccc(-c4cn[nH]c4)cc3s2)cc1`, the IC50 is reported as 0.04 µM. `Nc1nccc(-c2ccc3nc(C4COc5ccc(F)cc5C4)sc3c2)n1` (centres undefined) was tested, and the IC50 was 0.023 µM. In the case of `COc1ccc2c(c1)CC(c1nc3ccc(-c4ccnc(N)c4)cc3o1)CO2` (centres undefined), the IC50 is reported as 0.008 µM. In the case of `COc1ccc2c(c1)CC(c1nc3cc(-c4ccnc(N)n4)ccc3o1)CO2` (centres undefined), the IC50 is reported as 0.933 µM. In the case of `COc1ccc2c(c1)CC(c1nc3ccc(-c4ccncc4)cc3o1)CO2` (centres undefined), the IC50 is reported as 0.006 µM. Work on `O=C(Nc1nc2ccc(-c3cn[nH]c3)cc2s1)[C@H]1CNC[C@@H]1c1ccccc1` yielded an IC50 of 0.05 µM. `Nc1cc(-c2ccc3nc(C4COc5ccc(F)cc5C4)oc3c2)ccn1` (centres undefined) showed an IC50 of 0.018 µM. `O=C(Nc1nc2ccc(-c3cn[nH]c3)cc2s1)C1COc2ccc(F)cc2C1` (centres undefined) gave an IC50 of 0.022 µM. Molecule `COc1cccc(CN(CCN(C)C)C(=O)Nc2nc3ccc(-c4cn[nH]c4)cc3s2)c1` has an IC50 of 0.008 µM. `NCC(=O)N1C[C@H](C(=O)Nc2nc3ccc(-c4cn[nH]c4)cc3s2)[C@@H](c2ccccc2)C1` gave an IC50 of 0.037 µM. `Nc1cc(-c2ccc3nc(C4COc5ccccc5C4)oc3c2)ccn1` (centres undefined) gave an IC50 of 0.036 µM. Work on `COc1ccc2c(c1)CC(c1nc3cc(-c4ccnc5[nH]ccc45)ccc3o1)CO2` (centres undefined) yielded an IC50 of 0.518 µM. In the case of `COc1ccc2c(c1)CC(c1nc3cc(-c4ccncc4)cnc3s1)CO2` (centres undefined), the IC50 is reported as 0.579 µM. In the case of `COc1cccc(OCc2nc3ccc(-c4cn[nH]c4)cc3s2)c1`, the IC50 is reported as 0.042 µM. `COc1cccc(CN(CCN2CCCC2)C(=O)c2nc3ccc(-c4cn[nH]c4)cc3s2)c1` showed an IC50 of 0.043 µM. `COc1ccc2c(c1)CC(c1nc3ccc(-c4cn[nH]c4)cc3o1)CO2` (centres undefined) showed an IC50 of 0.0015 µM. With `COc1cccc(CN(CCO)C(=O)c2nc3ccc(-c4cn[nH]c4)cc3s2)c1` the IC50 was 0.007 µM. `CN(C)CCN(Cc1ccccc1)C(=O)c1nc2ccc(-c3cn[nH]c3)cc2s1` was tested, and the IC50 was 0.002 µM. Molecule `CN(C)CCNC(=O)c1cccc(CN(C(=O)c2nc3ccc(-c4cn[nH]c4)cc3s2)C2CC2)c1` has an IC50 of 0.035 µM. `Fc1ccc2c(c1)CC(c1nc3ccc(-c4cn[nH]c4)cc3o1)CO2` (centres undefined) gave an IC50 of 0.03 µM. Molecule `CN(C)CCN(Cc1cccc(F)c1)C(=O)c1nc2ccc(-c3cn[nH]c3)cc2s1` has an IC50 of 0.001 µM. Molecule `COc1ccc2c(c1)CC(c1nc3cc(-c4cn[nH]c4)ccc3o1)CO2` (centres undefined) has an IC50 of 0.219 µM. Molecule `COc1ccc2c(c1)CC(c1nc3ccc(-c4c[nH]nc4C)cc3o1)CO2` (centres undefined) has an IC50 of 0.016 µM. `O=C(Nc1nc2ccc(-c3cn[nH]c3)cc2s1)C1COc2ccccc2C1` (centres undefined) was tested, and the IC50 was 0.014 µM. With `COc1cccc(C(=O)Nc2nc3ccc(-c4ccncc4)cc3s2)c1` the IC50 was 1.93 µM. For `c1ccc2c(c1)OCC(c1nc3ccc(-c4cn[nH]c4)cc3s1)O2` (centres undefined), the IC50 was 0.017 µM. `Nc1nccc(-c2ccc3nc(C4COc5ccccc5O4)oc3c2)n1` (centres undefined) gave an IC50 of 0.021 µM. For `COc1cccc(CN(CCCN(C)C)C(=O)c2nc3ccc(-c4cn[nH]c4)cc3s2)c1`, the IC50 was 0.0043 µM. Work on `CN(C)CCCNC(=O)c1ccc2c(c1)CC(c1nc3ccc(-c4cn[nH]c4)cc3s1)CO2` (centres undefined) yielded an IC50 of 0.00087 µM. For `COc1cccc(CNC(=O)c2nc3ccc(-c4cn[nH]c4)cc3s2)c1`, the IC50 was 0.021 µM. `NCCC(=O)N1CC(C(=O)Nc2nc3ccc(-c4cn[nH]c4)cc3s2)CC1c1ccccc1` (centres undefined) gave an IC50 of 0.029 µM. `COc1ccc(CNc2nc3ccc(-c4ccncc4)cc3s2)cc1` was tested, and the IC50 was 5 µM.
